# PubChem BioAssay (NCI)
#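 Exposure lasted 48 hours, with cells grown in 96-well plates and compounds tested at five concentrations. Definition used: TGI = concentration required for complete inhibition of growth.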
# Key:
# Experiment in all cases: DTP human tumour cell line panel, 48 h
# 786-0 renal = tested on: 786-0 renal
# A498 renal = tested on: A498 renal
# A549 NSCLC = tested on: A549 NSCLC
# ACHN renal = tested on: ACHN renal
# CAKI-1 renal = tested on: CAKI-1 renal
# CCRF-CEM leukemia = tested on: CCRF-CEM leukemia
# COLO 205 colon = tested on: COLO 205 colon
# DLD-1 colon = tested on: DLD-1 colon
# DMS 114 small cell lung = tested on: DMS 114 small cell lung
# DMS 273 small cell lung = tested on: DMS 273 small cell lung
# EKVX NSCLC = tested on: EKVX NSCLC
# HCC-2998 colon = tested on: HCC-2998 colon
# HCT-116 colon = tested on: HCT-116 colon
# HCT-15 colon = tested on: HCT-15 colon
# HL-60(TB) leukemia = tested on: HL-60(TB) leukemia
# HOP-18 NSCLC = tested on: HOP-18 NSCLC
# HOP-62 NSCLC = tested on: HOP-62 NSCLC
# HOP-92 NSCLC = tested on: HOP-92 NSCLC
# HT29 colon = tested on: HT29 colon
# IGROV1 ovarian = tested on: IGROV1 ovarian
# K-562 leukemia = tested on: K-562 leukemia
# KM12 colon = tested on: KM12 colon
# KM20L2 colon = tested on: KM20L2 colon
# LOX IMVI melanoma = tested on: LOX IMVI melanoma
# LXFL 529 NSCLC = tested on: LXFL 529 NSCLC
# M14 melanoma = tested on: M14 melanoma
# M19-MEL melanoma = tested on: M19-MEL melanoma
# MALME-3M melanoma = tested on: MALME-3M melanoma
# MOLT-4 leukemia = tested on: MOLT-4 leukemia
# NCI-H23 lung = tested on: NCI-H23 lung
# NCI-H460 lung = tested on: NCI-H460 lung
# OVCAR-3 ovarian = tested on: OVCAR-3 ovarian
# OVCAR-4 ovarian = tested on: OVCAR-4 ovarian
# OVCAR-5 ovarian = tested on: OVCAR-5 ovarian
# OVCAR-8 ovarian = tested on: OVCAR-8 ovarian
# RPMI-8226 leukemia = tested on: RPMI-8226 leukemia
# RXF 393 renal = tested on: RXF 393 renal
# SF-268 CNS = tested on: SF-268 CNS
# SF-295 CNS = tested on: SF-295 CNS
# SF-539 CNS = tested on: SF-539 CNS
# SK-MEL-2 melanoma = tested on: SK-MEL-2 melanoma
# SK-MEL-5 melanoma = tested on: SK-MEL-5 melanoma
# SK-OV-3 ovarian = tested on: SK-OV-3 ovarian
# SN12C renal = tested on: SN12C renal
# SNB-19 CNS = tested on: SNB-19 CNS
# SNB-75 CNS = tested on: SNB-75 CNS
# SNB-78 CNS = tested on: SNB-78 CNS
# SW-620 colon = tested on: SW-620 colon
# TK-10 renal = tested on: TK-10 renal
# U251 CNS = tested on: U251 CNS
# UACC-257 melanoma = tested on: UACC-257 melanoma
# UACC-62 melanoma = tested on: UACC-62 melanoma
# UO-31 renal = tested on: UO-31 renal
# XF 498 CNS = tested on: XF 498 CNS
# NCI-H226 lung = tested on: NCI-H226 lung
# NCI-H522 lung = tested on: NCI-H522 lung
# SK-MEL-28 melanoma = tested on: SK-MEL-28 melanoma
# SR leukemia = tested on: SR leukemia
smiles,measurement,setting,value
COC(=O)CC(=O)OC,TGI,786-0 renal,> 100 µM
same,TGI,A498 renal,> 100 µM
same,TGI,A549 NSCLC,> 100 µM
same,TGI,ACHN renal,> 100 µM
same,TGI,CAKI-1 renal,> 100 µM
same,TGI,CCRF-CEM leukemia,> 100 µM
same,TGI,COLO 205 colon,> 100 µM
same,TGI,DLD-1 colon,> 100 µM
same,TGI,DMS 114 small cell lung,> 100 µM
same,TGI,DMS 273 small cell lung,> 100 µM
same,TGI,EKVX NSCLC,> 100 µM
same,TGI,HCC-2998 colon,> 100 µM
same,TGI,HCT-116 colon,> 100 µM
same,TGI,HCT-15 colon,> 100 µM
same,TGI,HL-60(TB) leukemia,> 100 µM
same,TGI,HOP-18 NSCLC,> 100 µM
same,TGI,HOP-62 NSCLC,> 100 µM
same,TGI,HOP-92 NSCLC,> 100 µM
same,TGI,HT29 colon,> 100 µM
same,TGI,IGROV1 ovarian,> 100 µM
same,TGI,K-562 leukemia,> 100 µM
same,TGI,KM12 colon,> 100 µM
same,TGI,KM20L2 colon,> 100 µM
same,TGI,LOX IMVI melanoma,> 100 µM
same,TGI,LXFL 529 NSCLC,> 100 µM
same,TGI,M14 melanoma,> 100 µM
same,TGI,M19-MEL melanoma,> 100 µM
same,TGI,MALME-3M melanoma,> 100 µM
same,TGI,MOLT-4 leukemia,> 100 µM
same,TGI,NCI-H23 lung,> 100 µM
same,TGI,NCI-H460 lung,> 100 µM
same,TGI,OVCAR-3 ovarian,> 100 µM
same,TGI,OVCAR-4 ovarian,> 100 µM
same,TGI,OVCAR-5 ovarian,> 100 µM
same,TGI,OVCAR-8 ovarian,> 100 µM
same,TGI,RPMI-8226 leukemia,> 100 µM
same,TGI,RXF 393 renal,> 100 µM
same,TGI,SF-268 CNS,> 100 µM
same,TGI,SF-295 CNS,> 100 µM
same,TGI,SF-539 CNS,> 100 µM
same,TGI,SK-MEL-2 melanoma,> 100 µM
same,TGI,SK-MEL-5 melanoma,> 100 µM
same,TGI,SK-OV-3 ovarian,> 100 µM
same,TGI,SN12C renal,> 100 µM
same,TGI,SNB-19 CNS,> 100 µM
same,TGI,SNB-75 CNS,> 100 µM
same,TGI,SNB-78 CNS,> 100 µM
same,TGI,SW-620 colon,> 100 µM
same,TGI,TK-10 renal,> 100 µM
same,TGI,U251 CNS,> 100 µM
same,TGI,UACC-257 melanoma,> 100 µM
same,TGI,UACC-62 melanoma,> 100 µM
same,TGI,UO-31 renal,> 100 µM
same,TGI,XF 498 CNS,> 100 µM
Cc1cc(C)c(-n2c(-c3ccccc3)cs/c2=N\N=C2C=C(C(C)(C)C)C(=O)C(C(C)(C)C)=C2)c(C)c1,TGI,786-0 renal,> 100 µM
same,TGI,A549 NSCLC,> 100 µM
same,TGI,ACHN renal,> 100 µM
same,TGI,CAKI-1 renal,> 100 µM
same,TGI,CCRF-CEM leukemia,> 100 µM
same,TGI,COLO 205 colon,> 100 µM
same,TGI,DLD-1 colon,> 100 µM
same,TGI,DMS 114 small cell lung,> 100 µM
same,TGI,DMS 273 small cell lung,> 100 µM
same,TGI,EKVX NSCLC,> 100 µM
same,TGI,HCC-2998 colon,> 100 µM
same,TGI,HCT-116 colon,> 100 µM
same,TGI,HCT-15 colon,> 100 µM
same,TGI,HL-60(TB) leukemia,> 100 µM
same,TGI,HOP-18 NSCLC,> 100 µM
same,TGI,HOP-62 NSCLC,> 100 µM
same,TGI,HOP-92 NSCLC,> 100 µM
same,TGI,HT29 colon,> 100 µM
same,TGI,IGROV1 ovarian,> 100 µM
same,TGI,K-562 leukemia,> 100 µM
same,TGI,KM12 colon,> 100 µM
same,TGI,KM20L2 colon,> 100 µM
same,TGI,LOX IMVI melanoma,> 100 µM
same,TGI,LXFL 529 NSCLC,> 100 µM
same,TGI,M14 melanoma,> 100 µM
same,TGI,M19-MEL melanoma,> 100 µM
same,TGI,MALME-3M melanoma,> 100 µM
same,TGI,MOLT-4 leukemia,> 100 µM
same,TGI,NCI-H226 lung,> 100 µM
same,TGI,NCI-H23 lung,> 100 µM
same,TGI,NCI-H460 lung,> 100 µM
same,TGI,NCI-H522 lung,> 100 µM
same,TGI,OVCAR-3 ovarian,> 100 µM
same,TGI,OVCAR-4 ovarian,> 100 µM
same,TGI,OVCAR-5 ovarian,> 100 µM
same,TGI,OVCAR-8 ovarian,> 100 µM
same,TGI,RPMI-8226 leukemia,> 100 µM
same,TGI,RXF 393 renal,> 100 µM
same,TGI,SF-268 CNS,> 100 µM
same,TGI,SF-295 CNS,> 100 µM
same,TGI,SF-539 CNS,> 100 µM
same,TGI,SK-MEL-2 melanoma,> 100 µM
same,TGI,SK-MEL-28 melanoma,> 100 µM
same,TGI,SK-MEL-5 melanoma,> 100 µM
same,TGI,SK-OV-3 ovarian,> 100 µM
same,TGI,SN12C renal,> 100 µM
same,TGI,SNB-19 CNS,> 100 µM
same,TGI,SNB-75 CNS,94.6 µM
same,TGI,SNB-78 CNS,> 100 µM
same,TGI,SR leukemia,> 100 µM
same,TGI,SW-620 colon,> 100 µM
same,TGI,TK-10 renal,> 100 µM
same,TGI,U251 CNS,> 100 µM
same,TGI,UACC-257 melanoma,> 100 µM
same,TGI,UACC-62 melanoma,> 100 µM
same,TGI,XF 498 CNS,> 100 µM
